pIC50: −log10 of the molar value. Marks after values point to notes of the source that are not given here.
Tests used:
S1 cells = assay: MTS cytotoxicity test with S1 cells; assay type: cell-based; details: Homo sapiens
Source text: (§1) Human cancer cell lines, unless otherwise noted, are obtained from the American Type Culture Collection (Rockville, Md.). The following drug-sensitive parental cell lines, and their derived drug-resistant counterparts, are obtained from the originators as listed: (a) S1 (parental line from a subclone of human colon carcinoma line LS174T) and derived S1-M1-3.2 (herein called S1-M1) which expresses the MXR drug transporter protein, are provided by Dr. L. Greenberger, Wyeth Research (Rabindran, S. K., He, H., Singh, M., Brown, E., Collins, K. I., Annable, T., and Greenberger, L. M. Reversal of a novel multidrug resistance mechanism in human colon carcinoma cells by fumitremorgin C. Cancer Res., 58:5850-5858,1998); (b) parental HL-60 human promyelocytic leukemia line and derived HL-60/ADR, which expresses the MRP1 drug transporter protein, are provided by Dr. M. Center, University of Kansas (McGrath, T., and Center, M. S. Adriamycin resistance in HL60 cells in the absence of detectable P-glycoprotein. Biochem. Biophys. […] J. Biol. Chem., 261: 7762-7770,1986) via Dr. L. Greenberger, Wyeth Research.
(§2) The assay, which is sold in kit form by Promega (Madison, Wis.; CellTiter 96 AQueous Non-Radioactive Cell Proliferation Assay), is based on the conversion by viable cells, but not by dead cells, of the tetrazolium salt, MTS (3-(4,5-dimethylthiazol-2-yl)-5-(3-carboxymethoxyphenyl)-2-(4-sulphophenyl)-2H-tetrazolium, inner salt), into a water-soluble colored formazan which is detected by spectrophotometry. Compounds are tested at nine concentrations, in order to determine IC50 values. For the test procedure, cells are harvested by trypsinization (or, in the case of non-adherent cells, by simple resuspension), washed, counted and distributed to wells of 96-well flat-bottom microtiter plates at 1000 cells per well in 200 μL of medium. In addition, one row of wells on a separate plate received cells as above (“time 0” plate). All plates are incubated at 37° in humidified 5% CO2 in air for about 24 hr.
(§3) On day 2, compounds for test are diluted and added to wells. Compounds are dissolved in DMSO at 10 mg/mL. For each compound, nine serial 2-fold dilutions are prepared in DMSO. Ten μL of each dilution in DMSO is transferred to 100 μL of medium, mixed well, and then 5 μL of this dilution is transferred in quadruplicate to wells containing cells. […] Plates are returned to the incubator for three days. At the time of drug addition to the experimental plates, the MTS assay is run on the “time 0” plate. This produced the “time 0 MTS value” which is related to the number of viable cells per well at the time of drug addition.
(§4) After three days of culture with test compounds (day 5 overall), the MTS assay is done on all wells of the experimental plates. The absorbance values of the quadruplicate sample wells are averaged and divided by the average of the “time 0” values. […] The nine values for each compound are plotted against concentration, and the concentration that produced a relative color yield half way between the maximum and minimum is taken as the IC50 value.
(§5) S1-M1 cells overexpress the MXR transporter which mediates resistance to some chemotherapeutics (Gottesman, M. M., Fojo, T., and Bates, S. E. Miltidrug resistance in cancer: role of ATP-dependent transporters. Nature Rev. Cancer, 2: 48-58, 2002). The IC50 values of representative examples of this invention, as well as reference compounds, on S1-M1 are compared to values on the sensitive parental S1 line.

HL-60/ADR cells = assay: MTS cytotoxicity test with HL-60/ADR cells (MRP1); assay type: cell-based, human; details: for Ratio: IC50 on HL-60/ADR cells/IC50 on HL-60 cells
Source text: as §1, §2, §3, §4
as §5, with “HL-60/ADR” for “S1-M1”, “multidrug resistance protein MRP1” for “MXR transporter”, “Multidrug” for “Miltidrug”, “HL-60” for “S1”

KB cells = assay: MTS cytotoxicity test with KB cells; assay type: cell-based; details: Homo sapiens; KB cells, MTS; read-out: IC50 KB
Source text: as §1, §2, §3, §4
(§6) The KB lines express different amounts of the P-glycoprotein (MDR1) membrane pump which produces resistance to the action of many cytotoxic compounds, including paclitaxel and vincristine. The parental KB line expresses no P-glycoprotein, KB-8-5 expresses moderate levels of the protein, and KB-V1 expresses very high levels.

KB-V1 cells = assay: MTS cytotoxicity test with KB-V1 cells (very high P-glycoprotein); assay type: cell-based, human; details: for pIC50: Homo sapiens, KB-V1 cells, MTS; for Ratio VI/KB: IC50 on KB VI cells/IC50 on KB cells
Source text: as §1, §2, §3, §4, §6

S1-M1 cells = assay: MTS cytotoxicity test with S1-M1 cells (MXR); assay type: cell-based, human; details: for Ratio: IC50 on S1-M1 cells/IC50 on S1 cells
Source text: as §1, §2, §3, §4, §5

KB-8-5 cells = assay: MTS cytotoxicity test with KB-8-5 cells (moderate P-glycoprotein); assay type: cell-based, human; details: for pIC50: Homo sapiens, KB-8-5 cells, MTS, read-out: IC50 KB 8.5; for Ratio 8.5/KB: IC50 on KB 8.5 cells/IC50 on KB cells
Source text: as §1, §2, §3, §4, §6

HL-60 cells = assay: MTS cytotoxicity test with HL-60 cells; assay type: cell-based; details: Homo sapiens; HL-60 cells, MTS; read-out: IC50 HL-60
Source text: as §1, §2, §3, §4
as §5, with “HL-60/ADR” for “S1-M1”, “multidrug resistance protein MRP1” for “MXR transporter”, “Multidrug” for “Miltidrug”, “HL-60” for “S1”

MAP-rich tubulin = assay: Tubulin polymerization test with MAP-rich tubulin; assay type: biochemical, bovine; details: 0.3 μM compound, 20 min, fold enhancement over control
Procedure: Medium is RPMI-1640 with L-glutamine, supplemented with 10% heat-inactivated fetal calf serum, 100 units/ml penicillin, and 100 μg/ml streptomycin (Gibco, Grand Island, N.Y.). Microtubule-associated protein (MAP)-rich tubulin, containing about 70% tubulin and 30% MAPs (#ML113), and highly purified tubulin (>99% pure, #TL238), both from bovine brain, are obtained from Cytoskeleton, Inc., Denver, Colo. PEM buffer (80 mM piperazine-N,N′-bis[2-ethanesulfonic acid], pH 6.9, 1 mM ethylene glycol-bis(β-aminoethyl ether)-N,N,N′,N′-tetraacetic acid, 1 mM magnesium chloride) and guanosine 5′-triphosphate (GTP) are also obtained from Cytoskeleton. [3H]paclitaxel, specific activity 14.7 Ci/mmol, is purchased from Moravek Biochemicals (Brea, Calif.). [^3H]vinblastine, specific activity 9.60 Ci/mmol and MicroSpin G-50 columns are obtained from Amersham Biosciences (Piscataway, N.J.). […] Other reagents are obtained from Sigma (St. Louis, Mo.).
Two variations of this procedure are done, one using MAP-rich tubulin and one using pure tubulin.
MAP-rich tubulin is dissolved in ice-cold PEM buffer containing 1 mM GTP (GPEM buffer) at a concentration of 1.3 mg/mL. The solution is centrifuged at top speed in an Eppendorf model 5415C microcentrifuge (Brinkmann Instruments, Westbury, N.Y.) for 10 min at […] immediately before use. The tubulin solution is added to wells of a ½-area 96-well plate (Costar No. 3696, Corning, Inc., Corning, N.Y.) already containing the compounds of interest. Each compound is tested in duplicate at a final concentration of 0.3 μM in a volume of 110 μL per well. The final DMSO concentration in all wells is 0.3%. Control reactions, which received compound solvent only, are done in quadruplicate. The plate is put in a SpectraMax Plus plate reader (Molecular Devices Corp. Sunnyvale, Calif.) thermostated at 24° and the absorbance of each well at 340 nm, a measure of the appearance of turbidity due to tubulin polymer formation, is determined every minute for 60 minutes. The absorbance at time 0 for each well is subtracted from each of the subsequent absorbance readings for that well, and then the duplicates are averaged.
In this assay, control reactions with MAP-rich tubulin show an S-shaped absorbance profile characterized by three phases: first, a lag phase during which no change in absorbance occurs; second, a polymerization phase in which absorbance increases; and third, a plateau phase in which absorbance has reached a maximum and little or no further change occurs. Polymerization enhancers such as paclitaxel and docetaxel shorten or eliminate the lag phase, increase the rate of the polymerization phase, and often increase the height of the plateau. […] The compounds of this invention have a taxane-like effect on the polymerization reaction. This has been expressed quantitatively in Table 5 by dividing the mean A340 of each sample at 20 min by the mean A340 of the control at 20 min to give a fold enhancement over control. […] Examples of this invention have factors ranging up to 8.1, with the majority in the 5 to 6-fold range.

[1] = system: U87-MG Human Glioblastoma; assay: Human tumor xenograft test, U87-MG; assay type: in vivo, athymic mice
Procedure: (§7) The ability of compounds of this invention to inhibit tumor growth in animals is studied in the athymic mouse xenograft standard pharmacological test. Female nu/nu mice in an outbred albino background are obtained from Charles River Laboratories (Wilmington, Mass.). Animals are injected subcutaneously on the flank with the desired tumor cell suspension. Several days later, mice with tumors of approximately 150 mm^3 are selected from those injected (staged) and randomly distributed into groups of 5-10. The day of staging is called day 0. Compounds of the invention, usually formulated in saline (exceptions are noted in tables), are administered to animals by intravenous injection or oral gavage on various schedules starting on day 0 or 1, as noted in the tables. The control group in each experiment is dosed with vehicle on the same schedule. Tumor size is measured every 3-7 days with calipers in two orthogonal dimensions, and tumor volume is calculated from the formula volume=[(length×width^2)/2].
(§8) Tumor/Control (T/C) is obtained by dividing the mean tumor volume of the treated group by the mean tumor volume of the control group on each measurement day. A treatment dose is defined as active if it produced a statistically significant T/C of 0.50 or less. A p value≦0.05, determined by one-side Student's t-test, is required for statistical significance. A treatment dose is defined as toxic if more than 10% of the animals died from a compound-related toxicity.

[2] = system: DLD1 Human Colon Carcinoma; assay: Human tumor xenograft test, DLD1; assay type: in vivo; details: DLD1, 20 mg/kg intravenously on days 1, 5, 9, and 13
Procedure: as §7, §8

COLO 205 cells = assay: MTS cytotoxicity test with COLO 205 cells; assay type: cell-based, human; details: Homo sapiens, COLO 205, 72 h, 3 days
Summary of the method: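 COLO 205 human colon carcinoma cells, 1000 per well, exposed 3 days at 37° C to nine 2-fold dilutions, typical final top concentration 5 μM. MTS absorbance normalized to time-0 plate; IC50 is concentration giving colour yield midway between untreated and fully killed controls.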

[3] = U87-MG, 2.5 mg/kg PO, day 0, vehicle Klucel
[4] = U87-MG, 5 mg/kg PO, day 0, vehicle Klucel
[5] = U87-MG, 10 mg/kg PO, day 0, vehicle Klucel
[6] = U87-MG, 20 mg/kg PO, day 0, vehicle Klucel
[7] = U87-MG, 30 mg/kg PO, day 0, vehicle Klucel
[8] = U87-MG, 20 mg/kg PO, days 1, 5, 9

CC[C@@]1(O)C(=O)OCc2c1cc1n(c2=O)Cc2cc3ccccc3nc2-1 [Camptothecin, reference compound]
pIC50 (S1 cells): 8.05 | pIC50 (HL-60/ADR cells; Homo sapiens, HL60/ADR, HL-60/ADR cells, MTS, read-out: IC50 HL-60/ADR): 7.77 | Ratio (HL-60/ADR cells): 1.4 | pIC50 (KB cells): 7.62 | pIC50 (KB-V1 cells): 7.41 | Ratio VI/KB (KB-V1 cells): 1.6 | pIC50 (S1-M1 cells; Homo sapiens, S1-M1 cells, MTS, read-out: IC50 S1-M1): 7.77 | Ratio (S1-M1 cells): 1.9 | pIC50 (KB-8-5 cells): 7.48 | Ratio 8.5/KB (KB-8-5 cells): 1.4 | pIC50 (HL-60 cells): 7.92

COc1cccc2c1C(=O)c1c(O)c3c(c(O)c1C2=O)C[C@@](O)(C(=O)CO)C[C@@H]3O[C@H]1C[C@H](N)[C@H](O)[C@H](C)O1 [Doxorubicin, reference compound]
pIC50 (S1 cells): 7.47 | Ratio (HL-60/ADR cells): 93 | pIC50 (KB cells): 7.64 | pIC50 (KB-V1 cells): < 5.52 | Ratio VI/KB (KB-V1 cells): >130 | Ratio VI/KB (KB-V1 cells; listed as doxorubicin): > 130 | Ratio (S1-M1 cells): 74 | pIC50 (KB-8-5 cells): 7.15 | Ratio 8.5/KB (KB-8-5 cells): 3.0 | pIC50 (HL-60 cells): 7.64

CNCCCOc1cc(F)c(-c2c(Cl)nc3ncnn3c2N[C@@H](C)C(F)(F)F)c(F)c1 [Example 2, 5-Chloro-6-{2,6-difluoro-4-[3-(methylamino)propoxy]phenyl}-N-[(1S)-2,2,2-trifluoro-1-methylethyl][1,2,4]triazolo[1,5-a]pyrimidin-7-amine]
A340 Compound/A340 Control (MAP-rich tubulin): 5.8 | T/C on day 0 [1, 3]: 1.00 | T/C on day 4 [1, 3]: 0.84 | T/C on day 8 [1, 3]: 0.82 | T/C on day 11 [1, 3]: 0.74* | T/C on day 14 [1, 3]: 0.74* | T/C on day 0 [1, 4]: 1.02 | T/C on day 4 [1, 4]: 0.71* | T/C on day 8 [1, 4]: 0.75* | T/C on day 11 [1, 4]: 0.65** | T/C on day 14 [1, 4]: 0.68** | T/C on day 0 [1, 5]: 1.00 | T/C on day 4 [1, 5]: 0.60** | T/C on day 8 [1, 5]: 0.51** | T/C on day 11 [1, 5]: 0.40** | T/C on day 14 [1, 5]: 0.41** | T/C on day 0 [1, 6]: 0.97 | T/C on day 4 [1, 6]: 0.59** | T/C on day 8 [1, 6]: 0.38** | T/C on day 11 [1, 6]: 0.28** | T/C on day 14 [1, 6]: 0.30** | T/C on day 0 [1, 7]: 0.95 | T/C on day 4 [1, 7]: 0.41** | T/C on day 8 [1, 7]: 0.24** | T/C on day 11 [1, 7]: 0.19** | T/C on day 14 [1, 7]: 0.23** | tumor growth inhibition (activity call) [2]: active | pIC50 (COLO 205 cells): 7.49

C[C@H](Nc1c(-c2c(F)cc(OCCCN3CCCC3)cc2F)c(Cl)nc2ncnn12)C(F)(F)F [Example 9, 5-Chloro-6-[2,6-difluoro-4-(3-pyrrolidin-1-ylpropoxy)phenyl]-N-[(1S)-2,2,2-trifluoro-1-methylethyl][1,2,4]triazolo[1,5-a]pyrimidin-7-amine]
A340 Compound/A340 Control (MAP-rich tubulin): 5.8 | T/C on day 0 [1, 8]: 1.04 | T/C on day 3 [1, 8]: 0.93 | T/C on day 7 [1, 8]: 0.70 | T/C on day 10 [1, 8]: 0.50** | T/C on day 13 [1, 8]: 0.34** | T/C on day 17 [1, 8]: 0.45** | tumor growth inhibition (activity call) ([1]; U-87 MG, oral dosing, 20 mg/kg): active | pIC50 (COLO 205 cells): 7.36

From patent US7507739B2, “6-[(substituted)phenyl]triazolopyrimidines as anticancer agents” (Wyeth, priority 2003, dated 2009)
